Consider nine molecules from the NIST ThermoML archive (doi:10.1021/acs.jced.7b00704).

± gives the expanded uncertainty stated by the source.

Data set [1] in a line: refractive index (Na D-line) (dimensionless). To be noted: Liquid, Standard Abbe refractometry.
The conditions of data set [2]: Liquid, Ebulliometric method (Recirculating still).
Data set [3] is described as follows: refractive index (Na D-line) (dimensionless); xn = mol fraction of the nth substance listed. To be noted: 293.15 K; 93 kPa; Liquid; Standard Abbe refractometry; x2 = 0.

By refractive index is commonly meant the speed of light in vacuum divided by its phase velocity in the sample. For orientation: vapor or sublimation pressure means the pressure of vapour in equilibrium with the condensed phase. As for `COC(C)=O` [methyl ethanoate], the refractive index in data set [1] (293.15 K, 93 kPa) is 1.3615 ± 0.0004; in data set [1] (298.15 K, 101.33 kPa) it was 1.35872 ± 0.00042. The “vapor or sublimation pressure” value in data set [2] (327.63 K) was 93.13 ± 0.96 kPa.
For the molecule `COC(=O)OC` [dimethyl carbonate], the refractive index is 1.3688 ± 0.0004 in data set [1] (293.15 K, 93 kPa) and 1.3664 ± 0.00042 in data set [1] (298.15 K, 101.33 kPa). Also, the “vapor or sublimation pressure” value in data set [2] (360.73 K) is recorded as 93.13 ± 0.96 kPa.
Regarding `CCCCOC(C)=O` [butyl ethanoate], the refractive index in data set [1] (293.15 K, 93 kPa) is given as 1.3943 ± 0.0004; in data set [1] (298.15 K, 101.33 kPa), 1.39175 ± 0.00038. The “vapor or sublimation pressure” value in data set [2] (396.21 K) amounted to 93.13 ± 0.95 kPa.
For the molecule `CC(=O)OC(C)C` [1-methylethyl ethanoate], the refractive index in data set [1] (293.15 K, 93 kPa) is 1.3774 ± 0.0004; in data set [1] (298.15 K, 101.33 kPa) it was 1.3748 ± 0.00042. Besides, the “vapor or sublimation pressure” value in data set [2] (358.92 K) turned out to be 93.13 ± 0.96 kPa.
As to `CC(=O)OCCC(C)C` [3-methylbutyl ethanoate], the refractive index in data set [1] (293.15 K, 93 kPa) is reported as 1.4007 ± 0.0005; in data set [1] (298.15 K, 101.33 kPa) it was 1.39842 ± 0.00054. In addition, the “vapor or sublimation pressure” value in data set [2] (412.31 K) is listed as 93.13 ± 0.97 kPa.
With `CCCOC(C)=O` [propyl ethanoate], the refractive index in data set [1] (293.15 K, 93 kPa) was found to be 1.3843 ± 0.0005; in data set [1] (298.15 K, 101.33 kPa), 1.38181 ± 0.00054. The “vapor or sublimation pressure” value in data set [2] (372.05 K) is recorded as 93.13 ± 0.97 kPa.
Consider `CCOC(C)=O` [ethyl acetate], for which the refractive index in data set [1] (293.15 K, 93 kPa) is on record as 1.3724 ± 0.0004; in data set [1] (298.15 K, 101.33 kPa), 1.3698 ± 0.00038. Moreover, in data set [2] (347.58 K), the “vapor or sublimation pressure” value was determined as 93.13 ± 0.95 kPa.
As for `COC(=O)OC` [dimethyl carbonate] + CC(=O)OCCC(C)C, the refractive index in data set [3] was determined as 1.3688 ± 0.0004.
On the same count and under the same terms, as for `COC(=O)OC` [dimethyl carbonate] + CC(=O)OC(C)C, the figure is 1.3688 ± 0.0004.
